Data reported in patent US8106047B2, “Triazolophthalazines” (NYCOMED GmbH, priority 2005, dated 2012).

Assays:
HUVEC monolayers = test: Inhibition of macromolecule (HRP) permeability of thrombin-stimulated HUVEC monolayers; format: cell-based, human; details: Homo sapiens, 1 h; HUVEC on Transwells, 1 μM RP73401, 10 μM Motapizone, 1 mM SNP or 100 nM ANP, 1 U/ml thrombin, HRP passage after 60 min; read-out: Inhibition of SNP- or ANP-induced permeability, −log IC50 [mol/l] (converted)
Experimental: Method to Assess Inhibition of Macromolecule Permeability of HUVEC Monolayers
The procedure to measure macromolecule permeability of endothelial cell monolayers followed the method described by Langeler & van Hinsbergh (1988) with modifications. Human umbilical vein endothelial cells were isolated from umbilical cords according to standard procedures (Jaffe et al. 1973) and cultured in endothelial cell basal medium (EBM) supplemented with 2% FCS, 0.5 ng/ml VEGF, 10 ng/ml bFGF, 5 ng/ml EGF, 20 ng/ml Long R3 IGF-1, 0.2 μg/ml hydrocortisone, 1 μg/ml ascorbic acid, 22.5 μg/ml heparin, 50 μg/ml gentamicin, 50 ng/ml amphotericin B (EGM2 purchased from Promocell GmbH, Heidelberg, Germany). At confluency, cells were trypsinized and replated at 73000 cells per well on 3 μm polycarbonate filter Transwell inserts (Costar GmbH, Bodenheim, Germany) precoated with 10 μg cm^2−1 Fibronectin (Sigma, Taufkirchen, Germany). HUVECs were cultured in EGM2 (100 μl in the upper wells and 600 μl in the lower wells) over four days prior the experiments and medium was changed every other day. At the day of the experiment culture medium was replaced by M199 with 1% human serum albumin. Endothelial cells were preincubated with cyclic nucleotide modifiers (the selective PDE3 inhibitor motapizone, the selective PDE4 inhibitor RP73401, the cGMP generators ANP or SNP and PDE2 inhibitors) for 15 min. HUVECs were then stimulated with Thrombin (1 U ml^−1) (Sigma, Taufkichen, Germany) and horsh radish peroxidase (5 μg/ml) (Sigma, Taufkirchen, Germany) as the macromolecule marker protein was added to the upper wells. Following 1 h incubation time Transwells were removed and the activity of horsh radish peroxidase that penetrated the endothelial cell monolayer was measured in the lower wells with the 3,3′,5,5′-tetramethylbenzidine liquid substrate system from Sigma (Taufkirchen, Germany).
In parallel, compounds according to the invention can inhibit Thrombin-induced permeability of HUVEC monolayers for horsh radish peroxidase (HRP) as a macromolecule marker. […] The concentration-dependent inhibition of HRP permeability at different concentrations was assessed from the percent inhibition in the presence and absence of the PDE2 inhibitors and in the presence of 1 μM RP73401, 10 μM Motapizone and 100 nM ANP.
Inhibition of SNP- or ANP-Induced Permeability of HUVEC Monolayers:
HUVEC cells on 3 μm polycarbonate filters (Transwells) were preincubated with 1 μM RP73401 (to block PDE4) and 10 μM Motapizone (to block PDE3), 1 mM SNP or 100 nM ANP and test sample over 15 min and then stimulated with 1 U/ml thrombin. HRP passage into the lower wells was assessed after 60 min.

| SMILES | IC50 (HUVEC monolayers) [nM] | melting point |
| --- | --- | --- |
| COc1ccc(-c2nnc3c4ccccc4c(Nc4ccc(NS(=O)(=O)c5cccs5)cc4)nn23)cc1 [Compound 1, Thiophene-2-sulfonic acid {4-[3-(4-methoxy-phenyl)-[1,2,4]triazolo[3,4-a]phthalazin-6-ylamino]-phenyl}-amide] | 0.501 to 126 | 351 to 353 °C |
| CN(C)S(=O)(=O)c1cccc(Nc2nn3c(-c4ccc(Br)cc4)nnc3c3ccccc23)c1 [Compound 28, [3-(N,N-dimethylsulfamoyl)-phenyl]-[3-(4-bromo-phenyl)-[1,2,4]triazolo[3,4-a]phthalazin-6-yl]-amine] | 0.501 to 126 | 290 to 293 °C |
| COc1ccc(-c2nnc3c4ccccc4c(Nc4cccc(NS(C)(=O)=O)c4)nn23)cc1 [Compound 19, N-{3-[3-(4-Methoxyphenyl)-[1,2,4]triazolo[3,4-a]phthalazin-6-ylamino]-phenyl}-methanesulfonamide] | 0.501 to 126 | 304.9 °C |
| COc1ccc(-c2nnc3c4ccccc4c(Nc4ccc(S(=O)(=O)N5CCOCC5)cc4)nn23)cc1 [Compound 22, [3-(4-Methoxyphenyl)-[1,2,4]triazolo[3,4-a]phthalazin-6-yl]-[4-(morpholine-4-sulfonyl)-phenyl]-amine] | 0.501 to 126 | 330 °C |
| COc1ccc(-c2nnc3c4ccccc4c(Nc4ccc(NS(C)(=O)=O)cc4)nn23)cc1 [Compound 3, N-{4-[3-(4-Methoxy-phenyl)-[1,2,4]triazolo[3,4-a]phthalazin-6-ylamino]-phenyl}-methanesulfonamide] | 0.501 to 126 | 318 to 320 °C |
| COc1ccc(-c2nnc3c4ccccc4c(Nc4ccc(NS(=O)(=O)Cc5ccccc5)cc4)nn23)cc1 [Compound 4, N-{4-[3-(4-Methoxy-phenyl)-[1,2,4]triazolo[3,4-a]phthalazin-6-ylamino]-phenyl}-1-phenyl-methanesulfonamide] | 0.501 to 126 | 304 to 306 °C |
| COc1ccc(-c2nnc3c4ccccc4c(Nc4cccc(NS(=O)(=O)N5CCOCC5)c4)nn23)cc1 [Compound 34, Morpholine-4-sulfonic acid {3-[3-(4-methoxy-phenyl)-[1,2,4]triazolo[3,4-a]phthalazin-6-ylamino]-phenyl}-amide] | 0.501 to 126 | 264 °C (dec.) |
| COc1ccc(-c2nnc3c4ccccc4c(Nc4cccc(S(=O)(=O)N5CCOCC5)c4)nn23)cc1 [Compound 25, [3-(4-Methoxyphenyl)-[1,2,4]triazolo[3,4-a]phthalazin-6-yl]-[3-(morpholine-4-sulfonyl)-phenyl]-amine] | 0.501 to 126 | 265.4 °C |
| COc1ccc(-c2nnc3c4ccccc4c(Nc4ccc(NS(=O)(=O)N5CCOCC5)cc4)nn23)cc1 [Compound 6, Morpholine-4-sulfonic acid {4-[3-(4-methoxy-phenyl)-[1,2,4]triazolo[3,4-a]phthalazin-6-ylamino]-phenyl}-amide] | 0.501 to 126 | 266 to 270 °C |
| COc1ccc(-c2nnc3c4ccccc4c(Nc4cccc(S(=O)(=O)N5CCCCC5)c4)nn23)cc1 [Compound 30, [3-(4-Methoxy-phenyl)-[1,2,4]triazolo[3,4-a]phthalazin-6-yl]-[3-(piperidine-1-sulfonyl)-phenyl]-amine] | 0.501 to 126 | 275 to 280 °C |
| COc1ccccc1-c1nnc2c3ccccc3c(Nc3cccc(NS(=O)(=O)N(C)C)c3)nn12 [Compound 32] | 0.501 to 126 | 229 to 233 °C |
| CN(C)S(=O)(=O)Nc1cccc(Nc2nn3c(-c4ccccc4F)nnc3c3ccccc23)c1 [Compound 31] | 0.501 to 126 | 252 to 256 °C |
| COc1ccc(-c2nnc3c4ccccc4c(Nc4ccc(S(=O)(=O)Nc5ncccn5)cc4)nn23)cc1 [Compound 21, 4-[3-(4-Methoxyphenyl)-[1,2,4]triazolo[3,4-a]phthalazin-6-ylamino]-N-pyrimidin-2-yl-benzenesulfonamide] | 0.501 to 126 | > 350 °C |
| COc1ccc(-c2nnc3c4ccccc4c(Nc4cccc(NS(=O)(=O)c5cccc(OC)c5)c4)nn23)cc1 [Compound 14, 3-Methoxy-N-{3-[3-(4-methoxy-phenyl)-[1,2,4]triazolo[3,4-a]phthalazin-6-ylamino]-phenyl}-benzenesulfonamide] | 0.501 to 126 | 328 to 332 °C |
| CN(C)c1ccccc1-c1nnc2c3ccccc3c(Nc3cccc(NS(=O)(=O)N(C)C)c3)nn12 [Compound 26] | 0.501 to 126 | 235 to 239 °C |
| COc1ccc(-c2nnc3c4ccccc4c(Nc4cccc(S(=O)(=O)N5CCCC5)c4)nn23)cc1 [Compound 29, [3-(4-Methoxy-phenyl)-[1,2,4]triazolo[3,4-a]phthalazin-6-yl]-[3-(pyrrolidine-1-sulfonyl)-phenyl]-amine] | 0.501 to 126 | 292 to 295 °C |
